Series [1] has as its system Candida albicans designated CA-1, Strain SLU-1. Type of series: cell-based. The note with it: C. albicans SLU1; 24 hours at 37° C.; OD 595 nm below 0.1. As to the method:
In each broth microdilution assay screening procedure, a colony of Candida albicans designated CA-1, Strain SLU-1 that was received from the laboratories of G. Matuschak and A. Lechner, St. Louis University Hospital, St. Louis, Mo., where the strain was maintained, was inoculated into a tube containing 5 mL Sabouraud Dextrose broth (2% dextrose, 1% neopeptone) and incubated at 37° C. with shaking. The overnight culture was diluted 1:50 into 5 ml of fresh broth and incubated for 3 hours at 37° C. to exponential phase growth. Organisms were pelleted by centrifugation in a Beckman J-6M centrifuge for 5 minutes at 3000 rpm (1500×g) and the pellets were resuspended in 5 mL phosphate buffered saline (PBS) and the optical density (OD) at 570 nm was determined. On the basis of the determination that one OD unit equals 3×10^7 colony forming units/mL (CFU/mL), yeast cells were diluted to 5×10^3 CFU/mL in Sabouraud Dextrose broth (SBD).
Derivatized peptide sequences based on Domain III of BPI to be screened which were originally constituted in Dulbecco's-PBS, were two-fold serially diluted in SDB starting from a concentration of 128 μg/mL. Equal volumes (100 μL) of yeast suspension as prepared above and derivatized peptide solution were added to wells of a 96-well sterile, flat bottom, non-pyrogenic tissue culture microtiter plate (Costar, Cambridge, Mass.) to reach a final volume of 200 μL/well. The plate was incubated on a shaker at 37° C. for 24 hours. All assays were performed in triplicate. Following the incubation period, plates were read in an ELISA plate reader at 595 nm wavelength to determine the minimum inhibitory concentration (MIC), i.e., the lowest concentration required to reduce the optical density at 595 nm to below 0.1 OD.

For another series, the system named is MDCK cells. The series can be described thus: In vitro oral absorption screening, transepithelial transport across MDCK cell monolayers. Type of series: in vitro ADME, canine. As for the experimental part: For these experiments, peptide-based constructs are screened for potential oral absorption in in vitro screening assays using MDCK and/or CACO-2 cells. Briefly, cultured monolayers of Madin-Derby canine kidney epithelial (MDCK) cells (ATCC Accession No. CCL-34) and/or CACO-2 (Human colon carcinoma) cells [Audus, K. L., et al. Phar. Res., 7:435-451 (1990) are grown upon collagen-coated, permeable-filter supports (Becton Dickinson, Mountain View, Calif.). The cells are grown to confluency and allowed to differentiate (e.g., about 3 days for MDCK cells or about 21 days for CACO-2 cells). The integrity of the monolayers is determined by measuring the transepithelial resistance. The cells are incubated with a peptide-based construct on the apical side for 2.5 hours in MDCK or CACO-2 screening. The transepithelial transport of the construct is measured by quantitative HPLC analysis of the incubation media on the basolateral side of the cells (forward transport). Radiolabelled mannitol and/or cortisone are used as positive controls. In addition, the efflux of the construct is measured by quantitative HLPC analysis of the incubation media on the apical side of the cells. This follows incubation of the cells with construct on the basolateral side for 2.5 hours. […]
Following the days post seeding, the cells are ready for transport experiments. […]
Apical control wells containing 1.5 mL TM with tritiated mannitol (^3H-mannitol, 1 μCi/mL; Dupont NEN Research Products, #NET-101, Boston, Mass.) are analyzed separately for counts per minute (cpm) of tritium to test the integrity of the MDCK cell monolayers. […]

The record followed here is patent publication US6355616B1, “Derivative compounds derived from or based on bactericidal/permeability-increasing protein” (priority 1999, dated 2002).

On to `CC[C@@H](C)[C@@H](NC(=O)[C@@H](CC(C)C)NC(=O)[C@@H](Cc1c[nH]c2ccccc12)NC(=O)[C@@H](CCCCN)NC(=O)c1ccccc1O)C(=O)N[C@H](CCC(N)=O)C(=O)N[C@H](CC(C)C)C(=O)N[C@H](Cc1ccccc1)C(=O)N[C@H](Cc1c[nH]cn1)C(=O)N[C@H](CCCCN)C(=O)N[C@H](CCCCN)C(N)=O` [XMP.560], for which the “Broth Microdilution (MIC values in μg/mL C. albicans SLU1)” value in series [1] is 2 µg/mL. Besides, the “cell absorption in MDCK cell screening assays” value in the series with MDCK cells is 2%. The “In Vitro Oral Availablity Screening (%) Forward” value with MDCK cells (apical to basolateral, 2.5 hours, donor ~100 μg/mL) is listed as “≧2%”. For the same compound, in the series with MDCK cells (basolateral to apical, 2.5 hours, donor ~100 μg/mL), the “In Vitro Oral Availablity Screening (%) Efflux” value is “≧2%”.
